# According to publication PMC4254045 (Bioorganic & medicinal chemistry, 2014):
# Entries after “also recorded” stand apart in the source; their conditions may differ. Square brackets hold non-standard residues; d marks the D form. Peptide text beside a SMILES is read from it. dPhe(4-guanidino) = N=C(N)Nc1ccc(C[C@@H](N)C(=O)O)cc1; Phe(4-guanidino) = N=C(N)Nc1ccc(C[C@H](N)C(=O)O)cc1
# Tests used:
# human MrgX1 [1] = molecular target: T1, human MrgX1 (Homo sapiens, UniProt Q96LB2); experiment: FLIPR agonist assay, HEK293 cells stably transfected with human MrgX1; type: cell-based
# rat MrgC = molecular target: T2, rat MrgC (Rattus norvegicus, UniProt Q8R4G1); experiment: FLIPR agonist assay, transiently transfected HEK293 or KNRK cells, rat MrgC; type: cell-based
# T2 sequence (Q8R4G1 1-323): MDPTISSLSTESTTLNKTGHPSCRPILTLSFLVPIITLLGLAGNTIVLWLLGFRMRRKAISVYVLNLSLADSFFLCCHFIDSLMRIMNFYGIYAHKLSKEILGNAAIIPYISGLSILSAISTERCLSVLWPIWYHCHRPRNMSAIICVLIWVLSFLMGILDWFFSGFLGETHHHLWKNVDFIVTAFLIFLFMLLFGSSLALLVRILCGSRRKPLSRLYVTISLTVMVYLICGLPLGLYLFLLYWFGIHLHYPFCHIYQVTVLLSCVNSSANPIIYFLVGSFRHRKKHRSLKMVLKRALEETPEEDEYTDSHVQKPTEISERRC
# mouse MrgC11 [2] = molecular target: T3, mouse MrgC11 (Mus musculus, UniProt Q8CIP3); experiment: FLIPR agonist assay, transiently transfected HEK293 or KNRK cells, mouse MrgC11; type: cell-based; settings: for agonist activity at mouse MrgC11 (in words): full agonism relative to BAM8-22
# T3 sequence (Q8CIP3 1-322): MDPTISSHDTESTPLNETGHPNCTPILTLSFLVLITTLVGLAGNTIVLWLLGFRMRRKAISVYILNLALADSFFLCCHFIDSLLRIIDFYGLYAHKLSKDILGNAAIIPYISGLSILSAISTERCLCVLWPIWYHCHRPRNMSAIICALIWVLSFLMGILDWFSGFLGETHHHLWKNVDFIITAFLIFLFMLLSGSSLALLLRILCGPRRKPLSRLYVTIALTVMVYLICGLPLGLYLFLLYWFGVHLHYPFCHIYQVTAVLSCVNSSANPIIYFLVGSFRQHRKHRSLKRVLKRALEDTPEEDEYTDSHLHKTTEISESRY
# human MrgX1 [3] = molecular target: T1, human MrgX1; experiment: Antagonist activity in human MrgX1 using BAM8-22; type: cell-based; settings: human MrgX1, BAM8-22 (200 nM) as agonist
# rats = settings: cited from earlier work
# mice = settings: cited from earlier work
# mouse MrgC11 [4] = molecular target: T3, mouse MrgC11; settings: cited from earlier work
# [5] = highest concentration tested due to limited solubility
# [6] = FLIPR, transiently transfected HEK293 or KNRK cells, average of at least three independent experiments ± SD
# T1 sequence (Q96LB2 whole entry): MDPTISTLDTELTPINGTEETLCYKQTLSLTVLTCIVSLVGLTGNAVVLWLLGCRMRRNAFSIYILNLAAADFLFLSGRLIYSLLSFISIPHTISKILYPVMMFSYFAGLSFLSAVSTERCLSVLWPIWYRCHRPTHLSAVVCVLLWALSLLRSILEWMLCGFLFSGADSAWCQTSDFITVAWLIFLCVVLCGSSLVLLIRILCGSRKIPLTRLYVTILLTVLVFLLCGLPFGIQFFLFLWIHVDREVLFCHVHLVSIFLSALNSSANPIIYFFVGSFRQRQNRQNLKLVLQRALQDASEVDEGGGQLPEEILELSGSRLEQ
compound,measurement,setting,value
"COc1ccc(-c2ccc(C(=O)Nc3cccc(Cn4ncc(N5CCNCC5)cc4=O)c3C)cc2)cn1 [1c, reference compound]",agonist activity at human MrgX1 (in words),human MrgX1 [1]; FLIPR,selectively activated human MrgX1
same,agonist activity at rat MrgC at concentrations up to 2 μM,rat MrgC; [5],no measurable agonist activity
same,agonist activity at mouse MrgC11 at concentrations up to 2 μM,mouse MrgC11 [2]; [5],no measurable agonist activity
N=C(N)Nc1cccc(C(N)C(=O)N[C@@H](Cc2ccccc2)C(N)=O)c1 (some centres unmarked) [20a],EC50,human MrgX1 [1],> 100 µM
same,EC50,rat MrgC,> 100 µM
same,agonist activity at rat MrgC (in words),rat MrgC; FLIPR,failed to show agonist activity; also recorded: Neither of the analogs showed agonist activity
N=C(N)Nc1cccc(C(N)C(=O)N[C@@H](Cc2ccccc2)C(N)=O)c1 (some centres unmarked) [20b],agonist activity at rat MrgC (in words),rat MrgC; FLIPR,failed to show agonist activity; also recorded: Neither of the analogs showed agonist activity
same,pEC50 Rat MrgC,rat MrgC; [6],<4
same,pEC50 Mouse MrgC11,mouse MrgC11 [2]; [6],4.5 ± 0.1
"N=C(N)Nc1ccc(C[C@H](N)C(=O)N[C@@H](Cc2ccccc2)C(N)=O)cc1 [24a, (2S)-2-amino-N-((2S)-1-amino-1-oxo-3-phenylpropan-2-yl)-3-(4-guanidinophenyl)propanamide bis(trifluoroacetate)] (H-[Phe(4-guanidino)]-Phe-NH2)",agonist activity at rat MrgC (in words),rat MrgC; FLIPR,exhibited agonist activity
same,agonist activity at mouse MrgC11 (in words),mouse MrgC11 [2]; FLIPR,exhibited agonist activity
"N=C(N)Nc1ccc(C[C@@H](N)C(=O)N[C@@H](Cc2ccccc2)C(N)=O)cc1 [24b, (2R)-2-amino-N-((2S)-1-amino-1-oxo-3-phenylpropan-2-yl)-3-(4-guanidinophenyl)propanamide bis(trifluoroacetate)] (H-[dPhe(4-guanidino)]-Phe-NH2)",agonist activity at rat MrgC (in words),rat MrgC; FLIPR,exhibited agonist activity
same,fold more potent than 24a at rat MrgC,rat MrgC; relative to diastereomer 24a,~100 fold
same,agonist activity at mouse MrgC11 (in words),mouse MrgC11 [2]; FLIPR,exhibited agonist activity
same,fold more potent than 24a at mouse MrgC11,mouse MrgC11 [2]; relative to diastereomer 24a,~10 fold
same,antagonist activity at concentrations up to 200 μM,human MrgX1 [3],"Neither Arg-Phe-NH2 nor 24b, however, showed any antagonist activity"
same,effect on neuropathic pain,rats,attenuated neuropathic pain
same,effect on neuropathic pain,mice,attenuated neuropathic pain
"N=C(N)N[C@@H]1CN[C@H](C(=O)N[C@@H](Cc2ccccc2)C(N)=O)C1 [compound 12, (2S,4S)-N-((S)-1-amino-1-oxo-3-phenylpropan-2-yl)-4-guanidinopyrrolidine-2-carboxamide bis(trifluoroacetate)]",agonist activity at rat MrgC (in words),rat MrgC; FLIPR,failed to show agonist activity
"N=C(N)NC[C@@H]1CN[C@H](C(=O)N[C@@H](Cc2ccccc2)C(N)=O)C1 [compound 16, (2S,4S)-N-((S)-1-amino-1-oxo-3-phenylpropan-2-yl)-4-(guanidinomethyl)pyrrolidine-2-carboxamide bis(trifluoroacetate)]",agonist activity at rat MrgC (in words),rat MrgC; FLIPR,failed to show agonist activity
Arg-Phe,EC50 for activating MrgC11 (in words),mouse MrgC11 [4],submicromolar
Phe-Met-Arg-Phe-NH2,MrgC11 agonist activity (in words),mouse MrgC11 [4],submicromolar
Phe-Met-D-Arg-Phe-NH2,MrgC11 agonist activity (in words),mouse MrgC11 [4],inactive
